In data set [1] the test system is mesencephalic dopaminergic neurons. Nature of the data set: TOPA neurotoxicity in mesencephalic dopaminergic neuron cultures, TH immunofluorescence. The data set is classed as cell-based, rat. On the procedure:
Mesencephalic neuron cultures were prepared according to Dal Toso et al. (Dal Toso et al.: “Development and survival of neurons in dissociated fetal mesencephalic serum-free cell cultures: I. Effects of cell density and of an adult mammalian striatal-derived neuronotrophic factor (SDNF)”, J. Neurosci., 8 (3) 733-745, 1988) from the mesencephalic tegmentum of 14.5-15 days' rat embryos.
Neurons (0.75×10^6) were plated on a poly-L-ornithine substrate in 12-well (25 mm dia. each) clusters.
Cultures were used between the fourth and the sixth day without changing the medium. […]
(§1) 2-hour pretreatment before acute incubation with TOPA;
(§2) cotreatment only with LIGA 20 before acute incubation with TOPA;
(§3) pretreatment with/without cotreatment before (100 μM for 2 h) and/or during (100 μM for 24 h) prolonged incubation with TOPA. TOPA cytotoxicity was determined by evaluating cellular survival, and more precisely:
TH immunofluorescence (specific for tyrosine hydroxylase) in mesencephalic dopaminergic neurons, as described by Berger et al. (Berger B. et al.: “Long-term development of mesencephalic dopaminergic neurons of mouse embryos in dissociated primary cultures: morphological and histochemical characteristics”, Neurosci., 7, 193-205, 1982);
(§4) Cytotoxicity is expressed as per cent cellular survival.
The results of the two tests (in triplicate) were analysed statistically according to Duncan's test.

The next data set deals with cerebellar granule cells. Put plainly: TOPA neurotoxicity in cerebellar granule cell cultures, MTT assay. Conditions: for Neuronal survival (%): control cultures = 100%. Type of data set: cell-based. The method, then: Granular cell cultures were obtained from 8-day rat cerebella and cultured (3×10^6 cells) on plates coated with poly-L-lysine substrate according to Skaper et al. (Skaper S. D. et al.: “Culture and use of primary and clonal neural cells”, Methods in Neurosciences, Ed. by P. M. Conn, Vol. 2, pp. 17-33, Academic Press, Orlando, 1990).
Twenty-four hours later, cytosine arabinoside (10 μM) was added to inhibit non-neuronal proliferation. Cerebellar granule cells were used 10-12 days later without changing the medium.
Cells were incubated with TOPA either for 40 minutes (100 μM acute exposure) or for 24 h (10 μM prolonged exposure).
Treatment with GM1, AGF2, AGF4 (100 μM) and LIGA 20 (1-30 μm) was carried out as follows:
as §1, §2, §3
MTT colorimetric assay of cerebellar neurons, as described by Mosmann (Mosmann T.: “Rapid colorimetric assay for cellular growth and survival: application to proliferation and cytotoxicity assays”, J. Immunol. Meth., 65, 55-63, 1983).
as §4
The results of the two tests (in triplicate) were analysed statistically according to Duncan's test. A brief description of same is reported below:
In FIG. 3 the dose-dependent protective effect of LIGA20 against TOPA-induced death of cultured cerebellar granule cells is represented. Cells were exposed concurrently to 100 μM TOPA and 1-30 μM LIGA20 or 200 μM GM1 in Locke's solution for 45 minutes (24° C.), washed and returned to their original medium. Survival was assessed 24 h later by the MTT method. Means±S.E.M. (n=9, 3 experiments). TOPA ( ), LIGA 20 ( ), GM1 ( ).
In vitro granule cells at the 11th day were incubated as indicated above. In the 40-minute exposure to TOPA, GM1 (100 μM) was used in 2-h pretreatment only. In the […] exposure to TOPA, GM1 (100 μM) was used either in 2-h pretreatment only or in 2-h pretreatment and in cotreatment with TOPA. The values are expressed with reference to the corresponding control cultures (=100%) and are an average (±S.D.) of two determinations, each being carried out in triplicate.
(Tetrazolium dyes change colour on reduction, which living cells bring about.)

In the case of `NC(Cc1cc(O)c(O)cc1O)C(=O)O` (stereo not drawn) [TOPA, 6-hydroxy-dopa, reference compound], the “No. of TH+ cells” value in data set [1] (TOPA 10 μM alone for 24 h, average ± S.D., control 244 ± 20) is reported as 62 ± 8 (a). Moreover, the “Neuronal survival (%)” value in the data set with cerebellar granule cells (TOPA 10 μM alone, 24-h exposure) is recorded as 17.1 ± 1.4%; with cerebellar granule cells (TOPA 100 μM alone, 40-minute exposure), 22 ± 2.0%.
As to N-dichloroacetyl lyso GM1 [LIGA20], in data set [1] (30 μM LIGA20 cotreatment with 100 μM TOPA for 45 minutes, counted 24 h later, mean ± S.E.M., no drug 5.2 ± 1.1), the “TH+ cells (% control)” value is reported as 83.9 ± 4.2 % control. Also, the EC50 in the data set on cerebellar granule cells (cotreatment with 100 μM TOPA for 45 minutes, 1-30 μM LIGA20, MTT 24 h later (FIG. 3), read-out: ED50 of protection against the acute toxicity of TOPA) was roughly 9 µM.

B1: BDNF: brain-derived neurotrophic factor (protein, UniProt P23560 19-247, looked up)
Neurotrophic factor BDNF …: APMKEANIRGQGGLAYPGVRTHGTLESVNGPKAGSRGLTSLADTFEHVIEELLDEDQKVRPNEENNKDADLYTSRVMLSSQVPLEPPLLFLLEEYKNYLDAANMSMRVRRHSDPARRGELSVCDSISEWVTAADKKTAVDMSGGTVTVLEKVPVSKGQLKQYFYETKCNPMGYTKEGCRGIDKRHWNSQCRTTQSYVRALTMDSKKRIGWRFIRIDTSCVCTLTIKRGR
Regarding B1, the “neuroprotective activity alone against TOPA-induced neurotoxicity” value in data set [1] (BDNF alone at 1 ng/ml) is given as “no neuroprotective activity of their own”.

(Values after patent US6620792B1, “Pharmaceutical compositions containing monosialoganglioside GM1 or derivative thereof suitable for the treatment of parkinson's disease” (Fidia S.p.A., priority 1992, dated 2003).)
